Where a name gives a salt, the structure may show the parent alone.
What was measured:
[1] = biological target: T1, B1R receptor of the rat (rB1R) (Rattus norvegicus, UniProt P97583); test: Functional investigation on the bradykinin 1 receptor (B1R), FLIPR Ca2+ assay, rB1R cells; assay type: cell-based; conditions: test substance 10 μM; CHO K1 cells transfected with rat B1R gene; Fluo-4 Ca2+ signal; agonist Des-Arg9-bradykinin at EC80; % of maximum achievable inhibition; read-out: B1R antagonism, rat [10 μM] % inhibition
T1 construct: expressed in transfected cells; host or cells: CHO K1 cells
T1 sequence (P97583 1-337): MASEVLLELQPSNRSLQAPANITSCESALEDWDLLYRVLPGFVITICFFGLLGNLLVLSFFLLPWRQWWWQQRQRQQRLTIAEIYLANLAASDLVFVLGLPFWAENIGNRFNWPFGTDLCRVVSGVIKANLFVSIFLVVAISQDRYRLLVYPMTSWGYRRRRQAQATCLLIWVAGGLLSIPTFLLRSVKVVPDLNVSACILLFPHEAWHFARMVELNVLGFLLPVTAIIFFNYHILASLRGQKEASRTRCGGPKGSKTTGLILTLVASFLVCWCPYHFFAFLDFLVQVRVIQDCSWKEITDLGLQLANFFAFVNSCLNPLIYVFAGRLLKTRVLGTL
Description: (§1) The agonistic or antagonistic action of substances on the bradykinin 1 receptor (B1R) of the human and rat species can be quantified with ectopically expressing cell lines (CHO K1 cells) and with the aid of a Ca^2+-sensitive dyestuff (Fluo-4) in a fluorescent imaging plate reader (FLIPR). The value in % activation is based on the Ca^2+ signal after addition of Lys-Des-[…]-bradykinin (0.5 nM) or Des-[…]-bradykinin (100 nM). Antagonists lead to a suppression of the Ca^2+inflow after addition of the agonist. % inhibition compared with the maximum achievable inhibition is stated. The agonistic or antagonistic action of substances on the bradykinin 1 receptor (B1R) of the human and rat species can be determined with the following assay. In accordance with this assay, the Ca^2+ inflow through the channel is quantified with the aid of a Ca^2+-sensitive dyestuff (type Fluo-4, Molecular Probes Europe BV, Leiden, Holland) in a fluorescent imaging plate reader (FLIPR, Molecular Devices, Sunnyvale, USA). Chinese hamster ovary cells (CHO K1 cells) transfected stably with the human B1R gene (hB1R cells) or the B1R gene of the rat (rB1R cells) are used. For functional studies, these cells are plated out on black 96-well plates with a clear base (BD Biosciences, Heidelberg, Germany or Greiner, Frickenhausen, Germany) in a density of 20,000-35,000 cells/well. The cells are left overnight at 37° C. and 5% CO2 in culture medium (hB1R cells: Nutrient Mixture Ham's F12, Gibco Invitrogen GmbH, Karlsruhe, Germany or DMEM, Sigma-Aldrich, Taufkirchen, Germany; rB1R cells: D-MEM/F12, Gibco Invitrogen GmbH, Karlsruhe, Germany) with 10 vol. % FBS (foetal bovine serum, Gibco Invitrogen GmbH, Karlsruhe, Germany or PAN Biotech GmbH, Aidenbach, Germany). On the following day, the cells are loaded for 60 min at 37° C. with 2.13 μM Fluo-4 (Molecular Probes Europe BV, Leiden Holland) in HBSS buffer (Hank's buffered saline solution, Gibco Invitrogen GmbH, Karlsruhe, Germany) with 2.5 mM probenecid (Sigma-Aldrich, Taufkirchen, Germany) and 10 mM HEPES (Sigma-Aldrich, Taufkirchen, Germany). The plates are then washed 2× with HBSS buffer, and HBSS buffer which additionally contains 0.1% BSA (bovine serum albumin; Sigma-Aldrich, Taufkirchen, Germany), 5.6 mM glucose and 0.05% gelatine (Merck KGaA, Darmstadt, Germany) is added. After a further incubation of 20 minutes at room temperature, the plates are inserted into the FLIPR for the Ca^2+ measurement. Alternatively, the plates are washed with buffer A (15 mM HEPES, 80 mM NaCl, 5 mM KCl, 1.2 mM CaCl2, 0.7 mM MgSO4, 2 g/l glucose, 2.5 mM probenecid), buffer A is added and the plates are loaded with 2.5 μM Fluo-4 and 0.025% Pluronic F127 (Sigma-Aldrich, Taufkirchen, Germany). Thereafter, the cells are washed 2× with buffer A and incubated for 30 minutes at room temperature with buffer A, which additionally contains 0.05% BSA and 0.05% gelatine, and thereafter inserted into the FLIPR for the Ca^2+ measurement. The Ca^2+-dependent fluorescence is measured here before and after addition of substances (λex=488 nm, λem=540 nm). Quantification is by measurement of the highest fluorescence intensity (FC, fluorescence counts) over time. The FLIPR protocol consists of 2 additions of substance. Test substances (10 μM) are first pipetted on to the cells and the Ca^2+ inflow is compared with the control (hB1R: Lys-Des-[…]-bradykinin>=50 nM; rB1R: Des-[…]-bradykinin 10 μM). This gives the result in % activation based on the Ca^2+ signal after addition of Lys-Des-[…]-bradykinin (>=50 nM) or Des-[…]-bradykinin (10 μM). After incubation for 10-20 minutes, Lys-Des-[…]-bradykinin (hB1R) or Des-[…]-bradykinin (rB1R) at the EC80 concentration is applied and the inflow of Ca^2+ is likewise determined. Antagonists lead to a suppression of the Ca^2+ inflow. The percent inhibition compared to the maximum achievable inhibition is calculated. In order to determine the IC50 value, the substances are added in various concentrations. […]

[2] = biological target: T2, human B1R receptor (hB1R) (Homo sapiens, UniProt P46663); test: Functional investigation on the bradykinin 1 receptor (B1R), FLIPR Ca2+ assay, hB1R cells; assay type: cell-based; conditions: test substance 10 μM; CHO K1 cells transfected with human B1R gene; Fluo-4 Ca2+ signal; agonist Lys-Des-Arg9-bradykinin at EC80; % of maximum achievable inhibition; read-out: B1R antagonism, human [10 μM] % inhibition
T2 construct: expressed in transfected cells; host or cells: CHO K1 cells
T2 sequence (P46663 1-353): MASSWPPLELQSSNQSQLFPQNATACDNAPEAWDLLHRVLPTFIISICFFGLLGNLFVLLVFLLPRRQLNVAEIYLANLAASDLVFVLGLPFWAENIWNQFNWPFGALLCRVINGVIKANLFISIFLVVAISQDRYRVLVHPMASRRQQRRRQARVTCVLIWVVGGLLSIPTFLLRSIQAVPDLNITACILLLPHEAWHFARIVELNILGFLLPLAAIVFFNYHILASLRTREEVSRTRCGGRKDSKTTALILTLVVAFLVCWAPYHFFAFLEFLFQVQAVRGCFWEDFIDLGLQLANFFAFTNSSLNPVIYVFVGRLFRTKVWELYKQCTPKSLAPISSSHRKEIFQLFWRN
Description: as §1

Q: Which results are given for `O=S(=O)(CCC[C@@H]1CCCN1S(=O)(=O)c1ccccc1C(F)(F)F)N1CCC(Oc2ccncc2)CC1` [Example 48, (S)-4-(1-(3-(1-(2-(Trifluoromethyl)phenylsulfonyl)pyrrolidin-2-yl)propylsulfonyl)piperidin-4-yloxy)pyridine]?
A: inhibition at 10 µM [1]: 75%; inhibition at 10 µM [2]: 81%

Q: Which inhibition at 10 µM [1] does the source give for `Cc1cccc(Cl)c1S(=O)(=O)N1CCC[C@H]1CCCS(=O)(=O)N1CCC2(CCC(Oc3ccncc3)CC2)CC1` [Example 62, 3-(3-((S)-1-(2-Chloro-6-methylphenylsulfonyl)pyrrolidin-2-yl)propylsulfonyl)-9-(pyridin-4-yloxy)-3-azaspiro[5.5]undecane] here?
A: 104%

Q: What about the inhibition at 10 µM [2] of the same compound?
A: 84%

Q: Which inhibition at 10 µM [1] does the source give for `COc1cc(C)c(S(=O)(=O)N2CCC[C@H]2CCCS(=O)(=O)N2CCC3(CCN(c4ccncc4)CC3)CC2)c(C)c1` [Example 64, 3-(3-((S)-1-(4-Methoxy-2,6-dimethylphenylsulfonyl)pyrrolidin-2-yl)propylsulfonyl)-9-(pyridin-4-yl)-3,9-diazaspiro[5.5]undecane] here?
A: 99%

Q: What about the inhibition at 10 µM [2] of the same compound?
A: 99%

Q: What does the source list for `Cc1cc(S(=O)(=O)N2CCC(CCS(=O)(=O)N3CCC(CCN4CCCC4)CC3)C2)c(C)cc1Cl` (centres unmarked) [Example 19, 1-(2-(1-(4-Chloro-2,5-dimethylphenylsulfonyl)pyrrolidin-3-yl)ethylsulfonyl)-4-(2-(pyrrolidin-1-yl)ethyl)piperidine]?
A: inhibition at 10 µM [1]: 13%; inhibition at 10 µM [2]: 77%

Q: `CN1CCC(N2CCN(S(=O)(=O)CCC[C@@H]3CCCN3S(=O)(=O)c3ccc(Cl)cc3Cl)CC2)CC1` [Example 31, (S)-1-(3-(1-(2,4-Dichlorophenylsulfonyl)pyrrolidin-2-yl)propylsulfonyl)-4-(1-methylpiperidin-4-yl)piperazine] was tested. Which inhibition at 10 µM [1] did it give?
A: 64%

Q: What about the inhibition at 10 µM [2] of the same compound?
A: 89%

Q: For `Cc1ccc(S(=O)(=O)N2CCC[C@H]2CCCS(=O)(=O)N2CCC3(CCN(c4ccncc4)CC3)CC2)c2ccccc12` [Example 75, 3-(3-((S)-1-(4-Methylnaphthalen-1-ylsulfonyl)pyrrolidin-2-yl)propylsulfonyl)-9-(pyridin-4-yl)-3,9-diazaspiro[5.5]undecane], which inhibition at 10 µM [1] is on record?
A: 100%

Q: What about the inhibition at 10 µM [2] of the same compound?
A: 96%

Q: `O=S(=O)(CCC[C@@H]1CCCN1S(=O)(=O)c1cccc2ccccc12)N1CCC(Oc2ccncc2)CC1` [Example 50, (S)-4-(1-(3-(1-(Naphthalen-1-ylsulfonyl)pyrrolidin-2-yl)propylsulfonyl)piperidin-4-yloxy)pyridine] was tested. Which inhibition at 10 µM [1] did it give?
A: 71%

Q: What about the inhibition at 10 µM [2] of the same compound?
A: 58%

Q: `O=S(=O)(CCC[C@@H]1CCCN1S(=O)(=O)c1cccc(Cl)c1Cl)N1[C@@H]2CC[C@H]1C[C@H](Oc1ccncc1)C2` [Example 60, (1R,3R,5S)-8-(3-((S)-1-(2,3-Dichlorophenylsulfonyl)pyrrolidin-2-yl)propylsulfonyl)-3-(pyridin-4-yloxy)-8-azabicyclo[3.2.1]octane] was tested. Which inhibition at 10 µM [1] did it give?
A: 100%

Q: What about the inhibition at 10 µM [2] of the same compound?
A: 89%

Q: Which inhibition at 10 µM [1] does the source give for `COc1cc(C)c(S(=O)(=O)N2CC(CCS(=O)(=O)N3CCC(CCN4CCCC4)CC3)CO2)c(C)c1C` (centres unmarked) [Example 15] here?
A: 18%

Q: What about the inhibition at 10 µM [2] of the same compound?
A: 97%

Q: `COc1cc(C)c(S(=O)(=O)N2CCC[C@H]2CCCS(=O)(=O)N2CCC3(CCN(c4ccncc4)C3)C2)c(C)c1` (stereo partly drawn) [Example 82, 2-(3-((S)-1-(4-Methoxy-2,6-dimethylphenylsulfonyl)pyrrolidin-2-yl)propylsulfonyl)-7-(pyridin-4-yl)-2,7-diazaspiro[4.4]nonane] was tested. Which inhibition at 10 µM [1] did it give?
A: 103%

Q: And the inhibition at 10 µM [2]?
A: 100%

Q: Which inhibition at 10 µM [1] does the source give for `COc1cc(C)c(S(=O)(=O)N2CCC(CCS(=O)(=O)N3CCN(c4ccncc4)CC3)C2)c(C)c1C` (centres unmarked) [Example 22, 1-(2-(1-(4-Methoxy-2,3,6-trimethylphenylsulfonyl)pyrrolidin-3-yl)ethylsulfonyl)-4-(pyridin-4-yl)piperazine] here?
A: 95%

Q: And the inhibition at 10 µM [2]?
A: 103%

Q: Which results are given for `O=S(=O)(CCC1CCN(S(=O)(=O)c2ccc(Cl)c(Cl)c2)C1)N1CCN(c2ccncc2)CC1` (centres unmarked) [Example 24, 1-(2-(1-(3,4-Dichlorophenylsulfonyl)pyrrolidin-3-yl)ethylsulfonyl)-4-(pyridin-4-yl)piperazine hydrochloride]?
A: inhibition at 10 µM [1]: 33%; inhibition at 10 µM [2]: 62%

Q: Which inhibition at 10 µM [1] does the source give for `COc1cc(C)c(S(=O)(=O)N2CCCCC2CCCS(=O)(=O)N2CCN(C3CCN(C)CC3)CC2)c(C)c1` (centres unmarked) [Example 26, 1-(3-(1-(4-Methoxy-2,6-dimethylphenylsulfonyl)piperidin-2-yl)propylsulfonyl)-4-(1-methylpiperidin-4-yl)piperazine] here?
A: 98%

Q: What about the inhibition at 10 µM [2] of the same compound?
A: 96%

Q: Which results are given for `COc1cc(C)c(S(=O)(=O)N2CCC[C@H]2CCCS(=O)(=O)N2[C@@H]3CC[C@H]2C[C@H](Oc2ccncc2)C3)c(C)c1` [Example 54, (1R,3R,5S)-8-(3-((S)-1-(4-Methoxy-2,6-dimethylphenylsulfonyl)pyrrolidin-2-yl)propylsulfonyl)-3-(pyridin-4-yloxy)-8-azabicyclo[3.2.1]octane]?
A: inhibition at 10 µM [1]: 98%; inhibition at 10 µM [2]: 100%

Q: `COc1cc(C)c(S(=O)(=O)N2CCCC(CCCS(=O)(=O)N3CCC(CCN4CCCC4)CC3)C2)c(C)c1C` (centres unmarked) [Example 10, 1-(4-Methoxy-2,3,6-trimethylphenylsulfonyl)-3-(3-(4-(2-(pyrrolidin-1-yl)ethyl)piperidin-1-ylsulfonyl)propyl)piperidine hydrochloride] was tested. Which inhibition at 10 µM [1] did it give?
A: 10%

Q: What about the inhibition at 10 µM [2] of the same compound?
A: 63%

Q: What does the source list for `CN1CCC(N2CCN(S(=O)(=O)CC3CCCCN3S(=O)(=O)c3cccc(C(F)(F)F)c3)CC2)CC1` (centres unmarked) [Example 37, 1-(1-Methylpiperidin-4-yl)-4-((1-(3-(trifluoromethyl)phenylsulfonyl)piperidin-2-yl)methylsulfonyl)piperazine]?
A: inhibition at 10 µM [1]: 40%; inhibition at 10 µM [2]: 53%

— US8119805B2, “Substituted disulfonamide compounds” (Gruenenthal GmbH, priority 2008, dated 2012)
